For assay [1], the target named is SARS2 protease (Severe acute respiratory syndrome coronavirus 2, UniProt P0DTD1). Description: SARS-CoV-2 protease inhibition assay (SARS2 FRET protease assay). The conditions noted are these: Table E; SARS-CoV-2 protease inhibition; read-out: IC50. It is filed as biochemical. The procedure, abridged:
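SARS-CoV-2 protease (25 nM) was incubated for 30 min at 30 °C with 1.3 μM quenched 5-FAM/TAMRA peptide substrate and compound (3-fold dilutions, 20 μM–1.0 nM). The buffer was 20 mM HEPES-Na pH 7, 120 mM NaCl, 0.4 mM EDTA, 0.01% Triton, 5% glycerol and 4 mM DTT. Fluorescence was read at ex 473 and em 519 nm, and IC50 was derived.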

Assay [2] concerns the target Norwalk GGI.1 Norovirus protease (Norovirus, UniProt Q83883). Description: Noro-Norwalk FRET protease assay (Norwalk GGI.1). It is filed as biochemical, Norwalk virus. Conditions: FRET protease assay, read-out: Norwalk GGI.1 IC50. The protocol: Viral protease assays: The antiviral activities of inhibitors were determined by FRET (Fluorescence Resonance Energy Transfer) assay. Purified viral protease was incubated with the protease substrate peptide (Edans-DFHLQ/GP-Dabcyl) and inhibitor, and IC50 values were subsequently determined by the fluorescence signals.
The Noro-Norwalk FRET protease assay was performed in 50 mM HEPES-Na pH 8, 50 mM NaCl, 0.4 mM EDTA, 4% glycerol, and 6 mM DTT. A self-quenching peptide substrate [5-FAM]-[…]-[TAMRA] was custom synthesized by Anaspec. Compounds were diluted in 3-fold serial dilutions to final concentrations of 200 μM to 10.2 nM. Noro protease was added to a final concentration of 1-7 μM, depending on the enzyme activity level, and the peptide substrate was added to a final concentration of 10 μM. The assay was incubated 90 minutes at 37° C. and read in a Perkin Elmer Envision with excitation at 473 nm and emission measurement at 519 nm.

The target in assay [3] is HuNV GGII.4 Norovirus protease (Norovirus GII.4 (human norovirus genogroup II genotype 4), UniProt P54634). Description: Norovirus protease FRET assay (HuNV GGII.4). The assay is classed as biochemical. Conditions: FRET protease assay, read-out: HuNV GGII.4 IC50.

SMILES strings stand for the structures. Like-named read-outs stand apart in the source and are kept apart here. Some results are limits rather than exact numbers.

For orientation: IC50 means the concentration that gives 50% inhibition.

Sequence of Norwalk GGI.1 Norovirus protease (Q83883 1101-1281): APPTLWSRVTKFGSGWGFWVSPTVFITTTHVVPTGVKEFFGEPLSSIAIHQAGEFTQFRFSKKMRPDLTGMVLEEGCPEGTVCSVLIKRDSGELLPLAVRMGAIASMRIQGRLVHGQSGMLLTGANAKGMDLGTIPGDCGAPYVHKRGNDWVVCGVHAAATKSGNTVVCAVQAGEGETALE
Sequence of HuNV GGII.4 Norovirus protease (P54634 1009-1189): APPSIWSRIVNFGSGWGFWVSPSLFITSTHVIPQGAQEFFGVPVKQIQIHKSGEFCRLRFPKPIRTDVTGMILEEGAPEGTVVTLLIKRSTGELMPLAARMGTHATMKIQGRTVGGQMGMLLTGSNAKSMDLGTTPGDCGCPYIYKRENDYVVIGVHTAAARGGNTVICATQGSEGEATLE

With `CCOCCOCCN(C)C(=O)CC[C@@H](C=O)NC(=O)[C@H](CC1CCCCC1)NC(=O)OCc1cccc(Cl)c1` [Compound A25, 3-Chlorobenzyl ((13S,16S)-17-cyclohexyl-13-formyl-9-methyl-10,15-dioxo-3,6-dioxa-9,14-diazaheptadecan-16-yl)carbamate], the IC50 in assay [1] is > 200 µM; in assay [2] (Table C) it was 17.2 µM; in assay [3] (Table C) it was 39.4 µM.

As for `CCOP(=O)(OCC)C(O)[C@@H]1CC(C(=O)NC)C/C=C/CCC(Cc2ccccc2)OC(=O)N[C@@H](CC(C)C)C(=O)N1` (stereo partly drawn) [Compound B27, Diethyl (((4S,7S,E)-15-benzyl-4-isobutyl-9-(methylcarbamoyl)-2,5-dioxo-1-oxa-3,6-diazacyclopentadec-11-en-7-yl)(hydroxy)methyl)phosphonate], the IC50 in assay [1] was > 200 µM; in assay [2] (Table D) it was 57.9 µM; in assay [3] (Table D), 57.9 µM.

For `CN(CCc1ccccc1Cl)C(=O)CC[C@@H](C=O)NC(=O)[C@H](CC1CCCCC1)NC(=O)OCc1cccc(Cl)c1` [Compound A105, 3-Chlorobenzyl ((S)-1-(((S)-5-((2-chlorophenethyl)(methyl)amino)-1,5-dioxopentan-2-yl)amino)-3-cyclohexyl-1-oxopropan-2-yl)carbamate], the half-inhibitory concentration (IC50) was > 200 µM in assay [1], 28.2 µM in assay [2] (Table C) and 155 µM in assay [3] (Table C).

Take `CCOP(=O)(OCC)C(O)[C@H](CCC(=O)N(C)CCc1ccc(Cl)cc1)NC(=O)C(CC1CCCCC1)NC(=O)OCc1cccc(Cl)c1` (stereo in doubt) [Compound A40, 3-Chlorobenzyl ((2S)-1-(((2S)-5-((4-chlorophenethyl)(methyl)amino)-1-(diethoxyphosphoryl)-1-hydroxy-5-oxopentan-2-yl)amino)-3-cyclohexyl-1-oxopropan-2-yl)carbamate]: the IC50 in assay [1] is > 200 µM; in assay [2] (Table C), 117 µM; in assay [3] (Table C), 199 µM.

For the compound `CON(C)C(=O)[C@H](CCC(=O)N1CCCC(c2ccccc2)C1)NC(=O)[C@H](CC1CCCCC1)NC(=O)OCc1cccc(Cl)c1` (stereo in doubt) [Compound A43, 3-chlorobenzyl ((2S)-3-cyclohexyl-1-(((2S)-1-(methoxy(methyl)amino)-1,5-dioxo-5-(3-phenylpiperidin-1-yl)pentan-2-yl)amino)-1-oxopropan-2-yl)carbamate], the IC50 in assay [1] was 185 µM; in assay [2] (Table C), 135 µM; in assay [3] (Table C), > 200 µM.

Regarding `CCOP(=O)(OCC)C(O)[C@H](CCC(=O)N(C)CCc1ccccc1)NC(=O)[C@H](CC1CCCCC1)NC(=O)OCc1cccc(Cl)c1` (stereo partly drawn) [Compound A15, 3-Chlorobenzyl ((2S)-3-cyclohexyl-1-(((2S)-1-(diethoxyphosphoryl)-1-hydroxy-5-(methyl(phenethyl)amino)-5-oxopentan-2-yl)amino)-1-oxopropan-2-yl)carbamate], the IC50 in assay [1] is > 200 µM; in assay [2] (Table C), > 200 µM; in assay [3] (Table C), 139 µM.

For the compound `CCOP(=O)(OCC)C(O)[C@H](CCC(=O)N(C)c1ccccc1)NC(=O)[C@H](CC1CCCCC1)NC(=O)OCc1cccc(Cl)c1` (stereo partly drawn) [Compound A14, 3-Chlorobenzyl ((2S)-3-cyclohexyl-1-(((2S)-1-(diethoxyphosphoryl)-1-hydroxy-5-(methyl (phenyl)amino)-5-oxopentan-2-yl)amino)-1-oxopropan-2-yl) carbamate], the IC50 was > 200 µM in assay [1], 50.9 µM in assay [2] (Table C) and 70.1 µM in assay [3] (Table C).

In the case of `CN(CCc1ccccc1)C(=O)CC[C@@H](C=O)NC(=O)[C@H](CC1CCCCC1)NC(=O)OCc1cccc(Cl)c1` (stereo in doubt) [Compound A36, 3-chlorobenzyl ((S)-3-cyclohexyl-1-(((S)-5-(methyl(phenethyl)amino)-1,5-dioxopentan-2-yl)amino)-1-oxopropan-2-yl)carbamate], the values for the IC50 in assay [1], in assay [2] (Table C) and in assay [3] (Table C) were > 200 µM, 5.2 µM and 26.9 µM, respectively.

As for `CC(CN(C)C(=O)CC[C@@H](C=O)NC(=O)[C@H](CC1CCCCC1)NC(=O)OCc1cccc(Cl)c1)c1ccccc1` (stereo in doubt) [Compound A49, 3-Chlorobenzyl ((2S)-3-cyclohexyl-1-(((2S)-5-(methyl(2-phenylpropyl)amino)-1,5-dioxopentan-2-yl)amino)-1-oxopropan-2-yl)carbamate], the IC50 was > 200 µM in assay [1], 15 µM in assay [2] (Table C) and 76.7 µM in assay [3] (Table C).

Turning to `CCNC(=O)CN(C)C(=O)CC[C@@H](C=O)NC(=O)[C@H](CC1CCCCC1)NC(=O)OCc1cccc(Cl)c1` [Compound A27, 3-Chlorobenzyl ((S)-3-cyclohexyl-1-(((S)-5-((2-(ethylamino)-2-oxoethyl) (methyl)amino)-1,5-dioxopentan-2-yl)amino)-1-oxopropan-2-yl)carbamate], the IC50 in assay [1] is 137 µM; in assay [2] (Table C), 2.7 µM; in assay [3] (Table C) it was 11.3 µM.

Take `CCCCCN(C)C(=O)CC[C@H](NC(=O)[C@H](CC1CCCCC1)NC(=O)OCc1cccc(Cl)c1)C(O)P(=O)(OCC)OCC` (stereo partly drawn) [Compound A9, 3-chlorobenzyl ((2S)-3-cyclohexyl-1-(((2S)-1-(diethoxyphosphoryl)-1-hydroxy-5-(methyl(pentyl)amino)-5-oxopentan-2-yl)amino)-1-oxopropan-2-yl)carbamate]: the IC50 was > 200 µM in assay [1], 14 µM in assay [2] (Table C) and 154 µM in assay [3] (Table C).

On to `CN(CCc1cccc(Cl)c1)C(=O)CC[C@@H](CO)NC(=O)[C@H](CC1CCCCC1)NC(=O)OCc1cccc(Cl)c1` [Compound A24, 3-Chlorobenzyl ((S)-1-(((S)-5-((3-chlorophenethyl)(methyl)amino)-1-hydroxy-5-oxopentan-2-yl)amino)-3-cyclohexyl-1-oxopropan-2-yl)carbamate], for which the IC50 in assay [1] is > 200 µM; in assay [2] (Table C), > 200 µM; in assay [3] (Table C), 123 µM.

With `CCOP(=O)(OCC)C(O)[C@H](CCC(=O)N(CC)CCc1ccccc1)NC(=O)[C@H](CC1CCCCC1)NC(=O)OCc1cccc(Cl)c1` (stereo partly drawn) [Compound A50, 3-Chlorobenzyl ((2S)-3-cyclohexyl-1-(((2S)-1-(diethoxyphosphoryl)-5-(ethyl(phenethyl)amino)-1-hydroxy-5-oxopentan-2-yl)amino)-1-oxopropan-2-yl)carbamate], the IC50 is 9.7 µM in assay [1], 97.4 µM in assay [2] (Table C) and 95.7 µM in assay [3] (Table C).

Consider `CN(C)C(=O)CC[C@@H](C=O)NC(=O)[C@H](CC1CCCCC1)NC(=O)OCc1cccc(Cl)c1` [Compound A6, 3-chlorobenzyl ((S)-3-cyclohexyl-1-(((S)-5-(dimethylamino)-1,5-dioxopentan-2-yl)amino)-1-oxopropan-2-yl)carbamate], for which the IC50 is > 200 µM in assay [1], 2 µM in assay [2] (Table C) and 18.7 µM in assay [3] (Table C).

As to `CN1C(=O)CCC(NC(=O)[C@H](CC2CCCCC2)NC(=O)OCc2cccc(Cl)c2)C1O` (stereo partly drawn) [Compound A2, 3-chlorobenzyl ((2S)-3-cyclohexyl-1-((2-hydroxy-1-methyl-6-oxopiperidin-3-yl)amino)-1-oxopropan-2-yl)carbamate], the IC50 in assay [1] is > 200 µM; in assay [2] (Table C), 169 µM; in assay [3] (Table C), 127 µM.

As to `CCCCCN(C)C(=O)CC[C@H](NC(=O)[C@H](CC1CCCCC1)NC(=O)OCc1cccc(Cl)c1)C(=O)N(C)OC` [Compound A8, 3-chlorobenzyl ((S)-3-cyclohexyl-1-(((S)-1-(methoxy (methyl)amino)-5-(methyl(pentyl)amino)-1,5-dioxopentan-2-yl)amino)-1-oxopropan-2-yl)carbamate], the IC50 in assay [1] was 89.8 µM; in assay [2] (Table C) it was > 200 µM; in assay [3] (Table C) it was > 200 µM.

In the case of `CCN(CCc1ccccc1)C(=O)CC[C@@H](C=O)NC(=O)[C@H](CC1CCCCC1)NC(=O)OCc1cccc(Cl)c1` (stereo in doubt) [Compound A56, 3-Chlorobenzyl ((S)-3-cyclohexyl-1-(((S)-5-(ethyl(phenethyl)amino)-1,5-dioxopentan-2-yl)amino)-1-oxopropan-2-yl)carbamate], the IC50 in assay [1] is > 200 µM; in assay [2] (Table C) it was 9.3 µM; in assay [3] (Table C), 106 µM.

As for `CCOP(=O)(OCC)C(O)[C@H](CCC(=O)N(C)CCNS(=O)(=O)CC)NC(=O)[C@H](CC1CCCCC1)NC(=O)OCc1cccc(Cl)c1` (stereo partly drawn) [Compound A22], the 50% inhibitory concentration (IC50) was 2.3 µM in assay [1], 143 µM in assay [2] (Table C) and > 200 µM in assay [3] (Table C).

Regarding `CON(C)C(=O)[C@H](CCC(=O)N(C)CCc1ccccc1Cl)NC(=O)[C@H](CC1CCCCC1)NC(=O)OCc1cccc(Cl)c1` (stereo in doubt) [Compound A39, 3-Chlorobenzyl ((S)-1-(((S)-5-((2-chlorophenethyl)(methyl)amino)-1-(methoxy(methyl)amino)-1,5-dioxopentan-2-yl)amino)-3-cyclohexyl-1-oxopropan-2-yl)carbamate], the IC50 in assay [1] is 5.3 µM; in assay [2] (Table C), 119 µM; in assay [3] (Table C) it was 100 µM.

These data come from US20230151034A1 (COCRYSTAL PHARMA, INC., priority 2020, published 2023).
